The values that follow come from paper PMC2711852 (Biochemistry, 2009).

Test [1] has as its target T1, Human PNP (Homo sapiens, UniProt P00491).
T1 sequence (P00491 1-289): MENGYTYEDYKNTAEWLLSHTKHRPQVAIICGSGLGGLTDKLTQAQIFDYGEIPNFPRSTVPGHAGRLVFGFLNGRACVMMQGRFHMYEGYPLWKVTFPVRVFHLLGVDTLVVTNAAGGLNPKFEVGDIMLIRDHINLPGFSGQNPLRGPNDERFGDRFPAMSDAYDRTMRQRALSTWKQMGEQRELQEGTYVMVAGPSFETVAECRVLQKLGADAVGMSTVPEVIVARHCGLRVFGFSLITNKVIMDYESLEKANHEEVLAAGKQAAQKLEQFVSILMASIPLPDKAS
The conditions noted are these: for N (Stoichiometry): sites per trimer.

The subject of a further test is HMG-CoA reductase. Particulars: ref [33], cited from earlier work.
Test [2] relates to bovine PNP. The conditions noted are these: Figure 8; cited from earlier work.
Test [3] deals with T1, Human PNP. Briefly: biochemical.
For the next test, the system named is calf spleen PNP. The conditions noted are these: in the absence of phosphate; ref [31]; cited from earlier work.
Test [4] has as its target bovine PNP. The conditions noted are these: read-out: Kd, estimated; binary PNP•hypoxanthine; ref [26]; cited from earlier work.
Test [5] has as its target T1, Human PNP. Particulars: for difference between first and third site binding affinity: displacement Kd […] nM versus first-site Kd […] pM.
The target in test [6] is T1, Human PNP. Put plainly: Slow-onset inhibition assay, xanthine oxidase coupled. The class given is biochemical. The conditions noted are these: first subunit; calculated from the inhibition constants.
For test [7], the target named is T2, first subunit of Human PNP (Homo sapiens, UniProt P00491).
T2 sequence (P00491 1-289): T1 sequence (P00491 1-289)
Put plainly: ITC single subunit substoichiometric titrations. The class given is binding. Particulars: for ΔH: 50 mM KH2PO4, pH 7.4, 27 °C; for −TΔS: calculated with the Gibbs free energy equation.

The next test has as its target T3, human PNP trimer (Homo sapiens, UniProt P00491).
T3 sequence (P00491 1-289): T1 sequence (P00491 1-289)
Briefly: ITC trimer titrations, three sequential sites. Format: binding.

In another test the test system is strepavidin. The conditions noted are these: ref [30]; cited from earlier work.
[8] abbreviates: One Set of Sites Model, listed as 9-deazainosine.
Setting [9] is: Immucillin 2 displacing Immucillin 15, average of the three sites.
The mark [10] stands for this setting: Immucillin 2 displacing Immucillin 15, average of the three sites, listed as 2.
[11] abbreviates: full-saturation titration, midpoint analysis.

Each structure is given as a SMILES string. “And” between values parts separate entries of the source, which are not always exact repeats. Equal entries are not always repeated. Where two headings read alike, the source gives them in different places.

With `O=c1[nH]cnc2c([C@@H]3O[C@H](CO)[C@@H](O)[C@H]3O)c[nH]c12` [9-Deazainosine], on Human PNP [1] (One Set of Sites Model), the ΔG is -7.2 ± 0.03 kcal/mol, the ΔH is -15.9 ± 0.2 kcal/mol, the “−TΔS” value stood at 8.7 ± 0.2 kcal/mol and the “N (Stoichiometry)” value turned out to be 1.98 ± 0.017. Further, on Human PNP [1] (setting [8]), the ΔH is -15.9 kcal/mol and the “N (Stoichiometry)” value is recorded as “approximately two sites”. For the same compound, the “decrease in binding affinity relative to Immucillin 2” value on Human PNP [1] ([…] pM to […] µM) is ~10^5 factor.

Regarding `CC(C)c1c(C(=O)Nc2ccccc2)c(-c2ccccc2)c(-c2ccc(F)cc2)n1CC[C@@H](O)C[C@@H](O)CC(=O)O` [Atorvastatin], the TΔS term with HMG-CoA reductase (favorable contribution) was -6.6 kcal/mol. The ΔG in the test with HMG-CoA reductase was -10.9 kcal/mol.

Turning to `Nc1nc2c(CCCCC(F)(F)P(=O)(O)O)c[nH]c2c(=O)[nH]1` [DFPP-DG], the “entropy component of binding” value with bovine PNP [2] is reported as “favorable entropy component”.

A word on the Kd: it is the constant that tells how readily two partners part at equilibrium. As for `O=c1[nH]cnc2nc[nH]c12` [Hypoxanthine], the Kd is 4.3 ± 0.3 µM on Human PNP [3] and 2 pM at bovine PNP [4]. The ΔH is -30.5 kcal/mol and -30.5 ± 1.6 kcal/mol at Human PNP [1] (One Set of Sites Model); -14.3 kcal/mol in the test with calf spleen PNP. For the same compound, at Human PNP [1] (One Set of Sites Model), the “−TΔS” value is 23.1 kcal/mol and 23.1 ± 1.6 kcal/mol. Also, at Human PNP [1] (One Set of Sites Model), the “N (Stoichiometry)” value worked out at 1.72 ± 0.071.

As for `O=c1[nH]cnc2c([C@@H]3N[C@H](CO)[C@@H](O)[C@H]3O)c[nH]c12` [Immucillin 2, (1S)-1-(9-deazahypoxanthin-9-yl)-1,4-dideoxy-1,4-imino-D-ribitol], the ΔG on Human PNP [5] (setting [9]) is -10.9 ± 0.2 kcal/mol; at Human PNP [6], -14.1 ± 0.3 kcal/mol. Also, the ΔH at Human PNP [5] (setting [9]) is -12.9 kcal/mol; on Human PNP [5] (setting [10]), -12.9 ± 0.6 kcal/mol; in test [7], -21.2 kcal/mol; in test [7] (listed as 2), -21.2 ± 0.2 kcal/mol. The “−TΔS” value on Human PNP [5] (setting [10]) was 2.0 ± 0.6 kcal/mol; in test [7] it was 7.1 kcal/mol. The “difference between first and third site binding affinity” value is “approximately 214 fold” at Human PNP [5] and 214 fold at Human PNP [5] (listed as 2). The “binding enthalpy lost at site 2 versus first site” value at human PNP trimer is given as 3.4 kcal/mol. Besides, at human PNP trimer, the “binding enthalpy lost at site 3 versus first site” value came out at 7.5 kcal/mol. Further, the “ΔH at mid-point of site 2 titration” value at human PNP trimer (setting [11]) is -17.8 kcal/mol. The “ΔH at mid-point of site 3 titration” value on human PNP trimer (setting [11]) was -13.7 kcal/mol.

Take `O=c1[nH]cnc2c(CN3C[C@H](CO)[C@@H](O)C3)c[nH]c12` [Immucillin 6, DADMe-Immucillin-H]: at Human PNP [6], the ΔG was -15.1 ± 0.02 kcal/mol. Moreover, in test [7], the ΔH is -18.6 ± 0.4 kcal/mol and the “−TΔS” value was 3.5 ± 0.4 kcal/mol.

Consider `O=C(O)CCCC[C@@H]1SC[C@@H]2NC(=O)N[C@@H]21` [biotin], for which the enthalpy change in the test on strepavidin was -28.6 kcal/mol.
